The values that follow come from the supplement of paper PMC10307832.

Structures are written as SMILES.

The subject of one assay is COR-L 105. Put plainly: relative viability (nuclei count vs DMSO), 5 days (fraction); higher = more cells survive. The note with it: first compound 6.325 µM. In short, it runs like this:
(§1)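 Medians of duplicate plates are given as relative viability. That measure is the nuclei count in treated wells divided by the count in vehicle wells. Counts were taken on 4× images of lung cancer cell lines in 1536-well plates, 5 days after pin-tool dosing the day after seeding with one drug alone or a fixed anchor-drug dose plus five library-drug doses (not always all listed) in √10 steps.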
Molecule `COCC1(CO)C(=O)C2CCN1CC2` (stereo unspecified) [PRIMA-1MET] + COc1cccc2cc(-c3nc([C@H]4CC[C@H](C(=O)O)CC4)n4ncnc(N)c34)[nH]c12 [OSI-027] (partner 0.5 µM) displayed a relative viability of 0.662.

Still in this assay, the particulars now being: first compound 20 µM.
On to `COCC1(CO)C(=O)C2CCN1CC2` (stereo unspecified) [PRIMA-1MET] + CS(=O)(=O)CCNCc1ccc(-c2ccc3ncnc(Nc4ccc(OCc5cccc(F)c5)c(Cl)c4)c3c2)o1 [Lapatinib] (partner 2 µM), for which the relative viability worked out at 0.22.

`COCC1(CO)C(=O)C2CCN1CC2` (stereo unspecified) [PRIMA-1MET] + O=C(CCCCCCC(=O)Nc1ccccc1)NO [Vorinostat] (partner 1 µM) came in with a relative viability of 0.196.

In turn, `COCC1(CO)C(=O)C2CCN1CC2` (stereo unspecified) [PRIMA-1MET] + Cc1cc(Nc2cc(N3CCN(C)CC3)nc(Sc3ccc(NC(=O)C4CC4)cc3)n2)n[nH]1 [Tozasertib] (partner 0.1 µM) gave a relative viability of 0.167.

For the molecule `COCC1(CO)C(=O)C2CCN1CC2` (stereo unspecified) [PRIMA-1MET] + COc1cccc2cc(-c3nc([C@H]4CC[C@H](C(=O)O)CC4)n4ncnc(N)c34)[nH]c12 [OSI-027] (partner 0.5 µM), the relative viability was 0.0915.

Another assay has as its system EKVX. The assay is described as above. The note with it: first compound 0.2 µM. Put shortly: as §1
Molecule `COCC1(CO)C(=O)C2CCN1CC2` (stereo unspecified) [PRIMA-1MET] + CS(=O)(=O)CCNCc1ccc(-c2ccc3ncnc(Nc4ccc(OCc5cccc(F)c5)c(Cl)c4)c3c2)o1 [Lapatinib] (partner 2 µM) showed a relative viability of 0.244.

On to `COCC1(CO)C(=O)C2CCN1CC2` (stereo unspecified) [PRIMA-1MET] + O=C(CCCCCCC(=O)Nc1ccccc1)NO [Vorinostat] (partner 1 µM), for which the relative viability turned out to be 0.995.

As to `COCC1(CO)C(=O)C2CCN1CC2` (stereo unspecified) [PRIMA-1MET] + Cc1cc(Nc2cc(N3CCN(C)CC3)nc(Sc3ccc(NC(=O)C4CC4)cc3)n2)n[nH]1 [Tozasertib] (partner 0.1 µM), the relative viability amounted to 0.452.

As to `COCC1(CO)C(=O)C2CCN1CC2` (stereo unspecified) [PRIMA-1MET] + COc1cccc2cc(-c3nc([C@H]4CC[C@H](C(=O)O)CC4)n4ncnc(N)c34)[nH]c12 [OSI-027] (partner 0.5 µM), the relative viability worked out at 0.915.

The same assay, now with this note: first compound 0.6325 µM.
`COCC1(CO)C(=O)C2CCN1CC2` (stereo unspecified) [PRIMA-1MET] + CS(=O)(=O)CCNCc1ccc(-c2ccc3ncnc(Nc4ccc(OCc5cccc(F)c5)c(Cl)c4)c3c2)o1 [Lapatinib] (partner 2 µM) had a relative viability of 0.202.

As for `COCC1(CO)C(=O)C2CCN1CC2` (stereo unspecified) [PRIMA-1MET] + O=C(CCCCCCC(=O)Nc1ccccc1)NO [Vorinostat] (partner 1 µM), the relative viability stood at 0.548.

In turn, `COCC1(CO)C(=O)C2CCN1CC2` (stereo unspecified) [PRIMA-1MET] + Cc1cc(Nc2cc(N3CCN(C)CC3)nc(Sc3ccc(NC(=O)C4CC4)cc3)n2)n[nH]1 [Tozasertib] (partner 0.1 µM) registered a relative viability of 0.357.

Molecule `COCC1(CO)C(=O)C2CCN1CC2` (stereo unspecified) [PRIMA-1MET] + COc1cccc2cc(-c3nc([C@H]4CC[C@H](C(=O)O)CC4)n4ncnc(N)c34)[nH]c12 [OSI-027] (partner 0.5 µM) registered a relative viability of 0.723.

The assay is the same for the next values; noted with them: first compound 2 µM.
As for `COCC1(CO)C(=O)C2CCN1CC2` (stereo unspecified) [PRIMA-1MET] + CS(=O)(=O)CCNCc1ccc(-c2ccc3ncnc(Nc4ccc(OCc5cccc(F)c5)c(Cl)c4)c3c2)o1 [Lapatinib] (partner 2 µM), the relative viability was 0.174.

For `COCC1(CO)C(=O)C2CCN1CC2` (stereo unspecified) [PRIMA-1MET] + O=C(CCCCCCC(=O)Nc1ccccc1)NO [Vorinostat] (partner 1 µM), the relative viability came to 0.672.

Staying with this assay, now noted: first compound 6.325 µM.
Regarding `COCC1(CO)C(=O)C2CCN1CC2` (stereo unspecified) [PRIMA-1MET] + CS(=O)(=O)CCNCc1ccc(-c2ccc3ncnc(Nc4ccc(OCc5cccc(F)c5)c(Cl)c4)c3c2)o1 [Lapatinib] (partner 2 µM), the relative viability came to 0.213.

`COCC1(CO)C(=O)C2CCN1CC2` (stereo unspecified) [PRIMA-1MET] + O=C(CCCCCCC(=O)Nc1ccccc1)NO [Vorinostat] (partner 1 µM) had a relative viability of 0.849.

`COCC1(CO)C(=O)C2CCN1CC2` (stereo unspecified) [PRIMA-1MET] + Cc1cc(Nc2cc(N3CCN(C)CC3)nc(Sc3ccc(NC(=O)C4CC4)cc3)n2)n[nH]1 [Tozasertib] (partner 0.1 µM): the relative viability was found to be 0.397.

On to `COCC1(CO)C(=O)C2CCN1CC2` (stereo unspecified) [PRIMA-1MET] + COc1cccc2cc(-c3nc([C@H]4CC[C@H](C(=O)O)CC4)n4ncnc(N)c34)[nH]c12 [OSI-027] (partner 0.5 µM), for which the relative viability was 0.78.

The assay is the same for the next values; noted with them: first compound 20 µM.
In turn, `COCC1(CO)C(=O)C2CCN1CC2` (stereo unspecified) [PRIMA-1MET] + CS(=O)(=O)CCNCc1ccc(-c2ccc3ncnc(Nc4ccc(OCc5cccc(F)c5)c(Cl)c4)c3c2)o1 [Lapatinib] (partner 2 µM) displayed a relative viability of 0.201.

Molecule `COCC1(CO)C(=O)C2CCN1CC2` (stereo unspecified) [PRIMA-1MET] + O=C(CCCCCCC(=O)Nc1ccccc1)NO [Vorinostat] (partner 1 µM) showed a relative viability of 0.64.

Molecule `COCC1(CO)C(=O)C2CCN1CC2` (stereo unspecified) [PRIMA-1MET] + Cc1cc(Nc2cc(N3CCN(C)CC3)nc(Sc3ccc(NC(=O)C4CC4)cc3)n2)n[nH]1 [Tozasertib] (partner 0.1 µM) came in with a relative viability of 0.366.

`COCC1(CO)C(=O)C2CCN1CC2` (stereo unspecified) [PRIMA-1MET] + COc1cccc2cc(-c3nc([C@H]4CC[C@H](C(=O)O)CC4)n4ncnc(N)c34)[nH]c12 [OSI-027] (partner 0.5 µM) returned a relative viability of 0.695.

Another assay deals with HARA. The assay is described as above. The conditions noted are these: first compound 0.2 µM. Put shortly:
as §1
In turn, `COCC1(CO)C(=O)C2CCN1CC2` (stereo unspecified) [PRIMA-1MET] + CS(=O)(=O)CCNCc1ccc(-c2ccc3ncnc(Nc4ccc(OCc5cccc(F)c5)c(Cl)c4)c3c2)o1 [Lapatinib] (partner 2 µM) had a relative viability of 0.782.

In turn, `COCC1(CO)C(=O)C2CCN1CC2` (stereo unspecified) [PRIMA-1MET] + O=C(CCCCCCC(=O)Nc1ccccc1)NO [Vorinostat] (partner 1 µM) came in with a relative viability of 0.544.

With `COCC1(CO)C(=O)C2CCN1CC2` (stereo unspecified) [PRIMA-1MET] + Cc1cc(Nc2cc(N3CCN(C)CC3)nc(Sc3ccc(NC(=O)C4CC4)cc3)n2)n[nH]1 [Tozasertib] (partner 0.1 µM), the relative viability is 0.119.
